Where “and” joins values, the source holds several entries; their conditions need not be identical. Equal values may be shown once. Entries after “also recorded” stand apart in the source; their conditions may differ.
Legend:
[1] = Plasma drug levels after treatment and kindling stimulation; format: in vivo, rat; details: same dose of both drugs, immediately after treatment and kindling stimulation; for Plasma Drug Levels, Average: average of 8 rats; for Plasma Drug Levels, individual rats: each line one rat (784-793)
From the text: Since there were differences in potencies between both compounds, plasma was obtained from rats immediately after treatment and kindling stimulation during one dose experiment.

PTZ induced seizures = details: literature / earlier application; cited from earlier work
[2] = test system: amygdala-kindled seizures; assay: Amygdala-kindling in fully kindled rats (anti-seizure effects); format: in vivo, rat; details: for afterdisch.dur.1 (ADD1) / afterdisch.dur.2 (ADD2) / afterdisch.thresh. (ADT) / seizure duration1 (SD1) / seizure duration2 (SD2) / seizure severity (SS): 15 min pretreatment, mean (X); for seizure severity (SS): Racine score; for increase of afterdischarge threshold: versus pre-drug control
Procedure: For implantation of stimulation and recording electrodes, rats were anesthetized with chloral hydrate (360 mg/kg i.p.) and received stereotaxic implantation (according to the surgery methods described in the atlas of Paxinos and Watson [1986]) of one bipolar electrode in the right basolateral amygdala. Coordinates for electrode implantation were AP-2.2 mm, L-4.8 mm, V-8.5 mm. All coordinates were measured from bregma. Skull screws served as the indifferent reference electrode. The electrode assembly was attached to the skull by dental acrylic cement. After a postoperative period of 2 weeks, constant current stimulations (500 μA, 1 ms, monophasic square-wave pulses, 50/s for 1 s) were delivered to the amygdala at intervals of 1/day until ten stage 5 seizures were elicited. The electrical susceptibility of the stimulated region (threshold for induction of afterdischarges) was recorded on the first day of the experiment (initial afterdischarge threshold) as well as after kindling acquisition (with an interval of at least 4 days after the tenth stage 5 seizure) using an ascending staircase procedure. The initial current intensity was 1 OμA, and the current intensity was increased in steps of about 20% of the previous current at intervals of 1 min until an afterdischarge of at least 3 s duration was elicited. […] In addition to afterdischarge threshold, the following parameters of kindled seizures were measured in fully-kindled rats after stimulation with the afterdischarge threshold current: seizure severity was classified according to Racine (1972): 1 -immobility, eye closure, twitching of vibrissae, sniffing, facial clonus; 2-head nodding associated with more severe facial clonus; 3-clonus of one forelimb; 4-rearing, often accompanied by bilateral forelimb clonus; 5-rearing with loss of balance and falling accompanied by generalized clonic seizures. Seizure duration 1 (SD 1) was the duration of limbic (stage 1-2) and/or motor seizures (stage 3-5). Seizure duration 2 (SD 2) included the time of limbic and/or motor seizures plus the adjacent time of immobility. Afterdischarge duration 1 (ADD 1) was the time of spikes in the EEG recorded from the site of stimulation with a frequency of at least 1 /s. Afterdischarge duration 2 (ADD 2) was the total time of spikes occurring in the EEG including those, which followed the ADD 1 with lower frequency and amplitude.
The anti-seizure effects of 2-propyl-4-hexynoic acid and valproate in fully kindled rats were determined in a group of 8-9 rats (no. 784, 785, 787, 788, 789, 790 [had to be taken out of the trial, because of loss of electrodes], 791, 792, 793) with reproducible stage 5 seizures.
Drugs were injected 15 min prior to stimulation intraperitoneally. Control experiments were always performed 2-3 days before each drug experiment. For control determinations, rats received i.p. injections of vehicle (saline) with the pretreatment time of the respective drug experiment. For all drug experiments, at least 4 days were interposed between 2 drug injections in order to avoid alterations in drug potency due to cumulation or tolerance.
The significance of differences between pre-drug control recordings and recordings after drug injection was calculated by the Wilcoxon signed rank test for paired replicates (SigmaStat for Windows, version 1.0).

[3] = Rotarod test (neurological deficit) in kindled rats; format: in vivo, rat
Procedure: Tests included open field observations, rotarod test and body temperature. Tests were always performed in the same manner in control and drug experiments at two different times, just before application of drug or vehicle and 13 minutes after application.
The rotarod test was carried out with a rod of 6 cm diameter and rotation speed of 8 r.p.m. Neurological deficit was indicated by inability of the animals to maintain their equilibrium for at least 1 min on the rotating rod. Rats had to be trained prior to drug experiments to maintain their balance on the rod. After drug or vehicle treatment, rats which were not able to maintain their equilibrium on the rod for 1 minute were put again on the rod twice.

[4] = 50 mg/kg i.p., 13′ after application
[5] = 75 mg/kg i.p., 13′ after application
[6] = 100 mg/kg i.p., listed as valproate
[7] = 200 mg/kg i.p., listed as valproate

For `CC#CCC(CCC)C(=O)O` (centres unmarked) [2-propyl-4-hexynoic acid, 2-n-propyl-4-hexynoic acid], the “Plasma Drug Levels, Average” value [1] is listed as 198.37 µg/mL, the “Plasma Drug Levels, individual rats” value [1] is listed as 209.31 µg/mL and 201.34 µg/mL and 218.87 µg/mL and 154.89 µg/mL and 220.70 µg/mL and 180.10 µg/mL and 170.68 µg/mL and 225.95 µg/mL and the “antiepileptic effect in PTZ test, in words” value (PTZ induced seizures) is listed as “effective antiepileptic with a longer duration of activity and greatly reduced sedative and teratogenic effects compared to valproic acid; also recorded: improved antiepileptic compared to valproic acid”. The “effects against amygdala-kindled seizures, in words” value ([2]; 50 mg/kg i.p.) was “no significant effects”, the “afterdisch.dur.1 (ADD1)” value ([2]; 50 mg/kg i.p.) was 93.11 s and the “afterdisch.dur.2 (ADD2)” value ([2]; 50 mg/kg i.p.) was 93.11 s. For the same molecule, the “afterdisch.thresh. (ADT)” value ([2]; 50 mg/kg i.p.) was 37.33 μA, the “seizure duration1 (SD1)” value ([2]; 50 mg/kg i.p.) was 78.44 s and the “seizure duration2 (SD2)” value ([2]; 50 mg/kg i.p.) was 234.33 s. For the same molecule, the “seizure severity (SS)” value ([2]; 50 mg/kg i.p.) was 4.89 score, the “afterdisch.dur.1 (ADD1)” value ([2]; 75 mg/kg i.p.) was 16.25 s and the “afterdisch.dur.2 (ADD2)” value ([2]; 75 mg/kg i.p.) was 16 s and 16.25 s. For the same molecule, the “afterdisch.thresh. (ADT)” value ([2]; 75 mg/kg i.p.) was 88.50 μA, the “seizure duration1 (SD1)” value ([2]; 75 mg/kg i.p.) was 16 s and 16.25 s and the “seizure duration2 (SD2)” value ([2]; 75 mg/kg i.p.) was 16.25 s. For the same molecule, the “seizure severity (SS)” value ([2]; 75 mg/kg i.p.) was 2.3 score and 2.25 score, the “increase of afterdischarge threshold” value ([2]; 75 mg/kg i.p.) was 109% and the “seizure duration1 (SD1)” value ([2]; 100 mg/kg i.p.) was 47 s. For the same molecule, the “seizure severity (SS)” value ([2]; 100 mg/kg i.p.) was 3.6 score, the “increase of afterdischarge threshold” value ([2]; 100 mg/kg i.p.) was 160% and the “afterdisch.dur.2 (ADD2)” value ([2]; 200 mg/kg i.p.) was 24 s. The “seizure duration1 (SD1)” value ([2]; 200 mg/kg i.p.) was 19 s, the “seizure severity (SS)” value ([2]; 200 mg/kg i.p.) was 1.8 score and the “increase of afterdischarge threshold” value ([2]; 200 mg/kg i.p.) was 209%. The “afterdisch.thresh. (ADT; μA)” value ([2]; 200 mg/kg, mean (X) of 8 kindled rats, control mean 57.88) was 178.75 μA, the “seizure severity (SS; score)” value ([2]; 200 mg/kg, mean of 8 rats, control mean 4.63) was 1.75 score and the “seizure duration1 (SD1; sec)” value ([2]; 200 mg/kg, mean of 8 rats, control mean 61.63) was 19.25 s. For the same molecule, the “afterdisch.dur.1 (ADD1;sec)” value ([2]; 200 mg/kg, mean of 8 rats, control mean 77.25) was 23.50 s, the “afterdisch.dur.2 (ADD2; sec)” value ([2]; 200 mg/kg, mean of 8 rats, control mean 88.13) was 23.50 s and the “seizure duration2 (SD2; sec)” value ([2]; 200 mg/kg, mean of 8 rats, control mean 197.88) was 36.38 s. For the same molecule, the “rotarod-test, day of exper.” value [3, 4] was 0%, the “rotarod-test, day of exper.” value [3, 5] was 0% and the “rotarod-test, day of exper.” value ([3]; 200 mg/kg, 13′, all 8 animals +) was 0%. The “rotarod-test, in words” value ([3]; doses 50, 75, 100, 200 mg/kg i.p.) was “performed successfully by all individuals”.
For `CCCC(CCC)C(=O)O` [Valproate, valproic acid], the “Plasma Drug Levels, Average” value [1] was 182.26 µg/mL, the “Plasma Drug Levels, individual rats” value [1] was 197.82 µg/mL and 189.87 µg/mL and 168.89 µg/mL and 173.37 µg/mL and 205.44 µg/mL and 174.06 µg/mL and 157.83 µg/mL and 190.82 µg/mL and the “afterdisch.dur.1 (ADD1)” value ([2]; 50 mg/kg i.p.) was 76.67 s. The “afterdisch.dur.2 (ADD2)” value ([2]; 50 mg/kg i.p.) was 76.67 s, the “afterdisch.thresh. (ADT)” value ([2]; 50 mg/kg i.p.) was 60.44 μA and the “seizure duration1 (SD1)” value ([2]; 50 mg/kg i.p.) was 72.22 s. For the same molecule, the “seizure duration2 (SD2)” value ([2]; 50 mg/kg i.p.) was 231.67 s, the “seizure severity (SS)” value ([2]; 50 mg/kg i.p.) was 4.33 score and the “increase of afterdischarge threshold” value ([2]; 50 mg/kg i.p.) was 109%. For the same molecule, the “afterdisch.dur.1 (ADD1)” value ([2]; 75 mg/kg i.p.) was 67.25 s, the “afterdisch.dur.2 (ADD2)” value ([2]; 75 mg/kg i.p.) was 67.25 s and the “afterdisch.thresh. (ADT)” value ([2]; 75 mg/kg i.p.) was 73.13 μA. The “seizure duration1 (SD1)” value ([2]; 75 mg/kg i.p.) was 54.00 s, the “seizure duration2 (SD2)” value ([2]; 75 mg/kg i.p.) was 250.75 s and the “seizure severity (SS)” value ([2]; 75 mg/kg i.p.) was 4.13 score. For the same molecule, the “increase of afterdischarge threshold” value ([2]; 75 mg/kg i.p.) was 77%, the “afterdisch.dur.1 (ADD1)” value ([2]; 100 mg/kg i.p.) was 20.00 s and the “afterdisch.dur.2 (ADD2)” value ([2]; 100 mg/kg i.p.) was 20.00 s. The “afterdisch.thresh. (ADT)” value ([2]; 100 mg/kg i.p.) was 151.67 μA, the “seizure duration1 (SD1)” value ([2]; 100 mg/kg i.p.) was 18.22 s and the “seizure duration2 (SD2)” value ([2]; 100 mg/kg i.p.) was 43.44 s. The “seizure severity (SS)” value ([2]; 100 mg/kg i.p.) was 3.00 score, the “seizure severity (SS)” value [2, 6] was 3.0 score and the “afterdisch.dur.2 (ADD2)” value [2, 6] was 20 s. The “seizure duration1 (SD1)” value [2, 6] was 18 s, the “increase of afterdischarge threshold” value ([2]; 100 mg/kg i.p.) was 319% and the “afterdisch.dur.1 (ADD1)” value ([2]; 200 mg/kg i.p.) was 8.75 s. For the same molecule, the “afterdisch.dur.2 (ADD2)” value ([2]; 200 mg/kg i.p.) was 8.75 s, the “afterdisch.thresh. (ADT)” value ([2]; 200 mg/kg i.p.) was 496.25 μA and the “seizure duration1 (SD1)” value ([2]; 200 mg/kg i.p.) was 8.75 s. The “seizure duration2 (SD2)” value ([2]; 200 mg/kg i.p.) was 8.75 s, the “seizure severity (SS)” value ([2]; 200 mg/kg i.p.) was 1.63 score and the “seizure severity (SS)” value [2, 7] was 1.6 score. The “afterdisch.dur.2 (ADD2)” value [2, 7] was 9 s, the “seizure duration1 (SD1)” value [2, 7] was 9 s and the “increase of afterdischarge threshold” value ([2]; 200 mg/kg i.p.) was 970%. The “effects against amygdala-kindled seizures, in words” value ([2]; all doses tested: 50, 75, 100, 200 mg/kg i.p.) was “significant effects against amygdala-kindled seizures”, the “rotarod-test, day of exper.” value [3, 4] was 0% and the “rotarod-test, day of exper.” value [3, 5] was 0%. For the same molecule, the “rotarod test, in words” value ([3]; 100 mg/kg i.p.) was “performed without failure”, the “rotarod-test, day of exper.” value ([3]; 100 mg/kg i.p., 13′ after application) was 0% and the “rotarod test, in words” value ([3]; 200 mg/kg i.p.) was “performed without failure”. For the same molecule, the “rotarod-test, day of exper.” value ([3]; 200 mg/kg i.p., 13′ after application) was 0%.

Source: US6458840B2, “Use of valproic acid analog for the treatment and prevention of migraine and affective illness” (American Biogenetic Sciences, Inc., priority 1998, dated 2002)
